Measured values reported in patent US6489098B1, “Means and methods for monitoring nucleoside reverse transcriptase inhibitor antiretroviral therapy and guiding therapeutic decisions in the treatment of HIV/AIDS” (ViroLogic, Inc., priority 1998, dated 2002).
Several values for one entry are separate records, joined by “and”; a condition that tells them apart may be missing. Equal entries are not always repeated. Entries after “also recorded” stand apart in the source; their conditions may differ.

How the values were obtained:
[1] = system: HIV-1 RT mutant resistance test vector M41L-A62V-T69SSA-T215Y-L210W-RTV; assay: Phenotypic susceptibility assay, site directed RTV M41L+A62V+T69SSA+L210W+T215Y; type: cell-based; conditions: RTV with 41 + 62 + 69 + 210 + 215; 3 replicates
Protocol: (§1) Resistance tests were carried out with resistance test vectors using two host cell types. Resistance test vector viral particles were produced by a first host cell (the resistance test vector host cell) that was prepared by transfecting a packaging host cell with the resistance test vector and the packaging expression vector. The resistance test vector viral particles were then used to infect a second host cell (the target host cell) in which the expression of the indicator gene is measured.
The resistance test vectors containing a functional luciferase gene cassette were constructed and host cells were transfected with the resistance test vector DNA. The resistant test vectors contained patient-derived reverse transcriptase and protease sequences that were either susceptible or resistant to the antiretroviral agents, such as nucleoside reverse transcriptase inhibitors, non-nucleoside reverse transcriptase inhibitors and protease inhibitors. The resistance test vector viral particles produced by transfecting the resistance test vector DNA into host cells, either in the presence or absence of protease inhibitors, were used to infect target host cells grown either in the absence of NRTI or NNRTI or In the presence of increasing concentrations of the drug. The amount of luciferase activIty produced in infected target host cells in the presence of drug was compared to the amount of luciferase produced in infected target host cells in the absence of drug. […] The IC50 values were determined by plotting percent drug inhibition vs. log 10 drug concentration.
(§2) Host cells were seeded in 10-cm-diameter dishes and were transfected several days after plating with resistance test vector plasmid DNA and the envelope expression vector. […] HIV capsid protein (p24) levels in the harvested cell culture media were determined by an EIA method as described by the manufacturer (SIAC; Frederick, Md.). […] The inhibitory effect of the drug was determined using the following equation: […]

[2] = system: HIV-1 RT mutant resistance test vector V75I+Q151M; assay: Phenotypic susceptibility assay, site directed RTV V75I+Q151M; type: cell-based; conditions: RTV with V75I+Q151M
Protocol: as §1
The resistance test vectors containing a functional luciferase gene cassette were constructed and host cells were transfected with the resistance test vector DNA. […] The IC50 values were determined by plotting percent drug inhibition vs. log 10 drug concentration.
as §2

| SMILES | Average fold reduction in susceptibility [1] | effect on susceptibility (words) [2] |
| --- | --- | --- |
| Nc1ccn([C@H]2CC[C@@H](CO)O2)c(=O)n1 [ddC, zalcitabine] | 2.1 fold and 2.10 fold | – |
| Cc1cn([C@H]2C=C[C@@H](CO)O2)c(=O)[nH]c1=O [d4T, stavudine] | – | decreased susceptibility to d4T; also recorded: reduced d4T and AZT susceptibility |
